According to patent US20170119020A1, “METHOD OF FEEDING AN ANIMAL” (CARGILL, INCORPORATED, priority 2014, published 2017):

Columns and labels:
[1] = test system: Cobb 500FF breeder chickens; test: Broiler breeder performance, partial replacement of vitamin E by PROVIOX 50 (Example 1); type: in vivo, chicken
Experimental: Two different breeder diets (Table 1) were tested in a randomized block design. Breeders received a standard control diet or a diet where 50% of the vitamin E was replaced by PROVIOX 50. The two diets were randomly distributed into six cages, resulting in three replicates per treatment with 28, 29, or 30 females and […] per replicate.
The experimental period lasted four weeks; the breeders received a lay start diet during the entire period according to the experimental design. Feed and water were restricted. Feed amount depended on body weight development. Water was provided for two hours a day, crops were checked regularly to ensure the correct amount of water was provided.
A total of 24 male and 173 female Cobb 500FF 20-week-breeder chickens were procured. The males and females were randomly assigned to six floor pens (four males per pen, 29 females in pens 1-3, 30 females in pen 4, and 28 females in pens 5 and 6). During the pre-trial period, all breeders received the control diet.
Throughout the trial, breeders were housed in broiler breeder floor pens ([…]) on litter (flax). Each pen was equipped with two bell drinkers adjustable in height. The feed for the females was supplied via two feeder bowls on the raised slatted floor. The feed for the males was supplied via a feeder trough on the other side of the pen.
Day length was set at 14 hours a day until peak production was reached (70%; day 15). After peak production was achieved, day length was set to 15 hours a day. Temperature and ventilation were computer controlled. The temperature was set at 20° C. for the entire experimental period.
Individual bird weights were recorded weekly from the start of the experiment. Feed amount provided was recorded on a daily basis. Egg production and egg quality data were recorded on a daily basis. Laying % was calculated as number of eggs produced per pen divided by the number of bird days of the experimental period. Egg mass production per pen per week was calculated as laying % (including second-class eggs) times average egg weight of the pen. Average egg weight was determined per pen once a week. Second-class eggs were divided into dirty eggs, broken eggs, shell-less eggs, double-yolk eggs, floor eggs and remaining second-class eggs. Mortality was checked every day; dead animals were not replaced during the experimental period.

[2] = test system: egg yolk of Ross 308 breeders; test: Egg yolk ORAC and vitamin E analysis (Example 4); type: in vivo, chicken
Text: Eggs were shipped to University Gent, Belgium, for ORAC and vitamin E analysis on the yolk. The method used for the determination of polyphenols was the Folin-Ciocalteu Methodology which is described in the European Pharmacopoeia, using a spectrophotometry UV-visible. For the ORAC analysis the method was used as described by Ou et al. “Development and validation of an improved oxygen radical absorbance capacity assay using fluorescein as the fluorescent probe,” Journal of Agricultural and Food Chemistry 49: 4619-4626, (2001) and Huang et al. “High-throughput assay of oxygen radical absorbance capacity (ORAC) using a multichannel liquid handling system coupled with a microplate fluorescence reader in 96-well format,” Journal of Agricultural and Food Chemistry 50: 4437-4444, (2002).

sows and piglets = test: Glutathione peroxidase (GPx) activity in blood of sows and piglets (Example 10); type: in vivo, pig; conditions: for Activity of glutathione peroxidase (GPx) in blood of piglets: piglets at 21 days
Text: The performance following criteria were monitored during the trial: (i) Sows response criteria (actual parity, farrowing rate, culled sows—number and reasons, wean-to-mating interval, farrowing rate in the next cycle); (ii) litter response criteria (number of piglets, total, alive, stillborn, mummies; weight of piglets and litters; survival). The following biochemical (blood) criteria were monitored during the trial for the sows (mating, farrowing and weaning), piglets 21st day: (i) glutathione peroxidase (GPx) activity; (ii) superoxide dismutase (SOD) activity; (iii) total antioxidant status (TAS); (iv) vitamin E content; (v) vitamin A content.
To determine the oxidative status, the blood samples were collected from sows and piglets into tubes with lithium anticoagulant—received whole blood for analysis. At the same time blood samples were taken for blood clot. They were centrifuged (1500 rpm, 15 Temp. 4° C.) and obtained serum was pipetted into separate tubes.
In studies of oxidative status of sows and piglets were used suitable to each of the indicators, the reagent kits from Sigma-Aldrich. Determination was made in accordance with the descriptions of the rules and procedures specified by the manufacturer.
The content of the TAS (total antioxidant status) were determined using the Antioxidant assay kit (Cat. No CS0790), the activity of SOD (superoxide dismutase) was determined using SOD determination kit 19160, the activity of GPx (glutathione Peroxide assai Cellular Activity Kit) Cat. No CGP1. The content of vitamins A and E by McMurray and Blanchflower 1979 (Journal of Chromatography 178, 525-531.). TAS
Whole blood samples (blood collection from animals to tubes with lithium anticoagulant) in duplicate (10 pl) was added to […] of buffer (pH 8), mixed (vortex—10′), then added 10 pl of a 70% aqueous solution of tert-butyl Hydroperoxide, mixed (by inversion) and the absorbance was measured immediately in a spectrophotometer at a wavelength of 340 nm. After 1 minute the measurement was repeated. Simultaneously blank samples (reagent) were performed and a calibration curve based on GPx serial dilutions in the range of 20 to 50 U/ml. The decrease in NADPH absorbance (during 1 minute) measured at 340 nm during the oxidation of NADPH to NADP+ is indicative of GPx activity.

[3] = breeders 26 through 30 weeks of age

## Cc1c(C)c2c(c(C)c1O)CCC(C)(CCCC(C)CCCC(C)CCCC(C)C)O2 (racemic) [Vitamin E, DL-α-tocopherol]
[1]; [3]
  Egg Mass: 47.1 g/hen/day
  Egg Weight: 56.4 g
  First Class Eggs: 77.9%
  Second Choice Eggs: Broken Eggs: 1.6%
  Second Choice Eggs: Dirty Eggs: 0.7%
  Second Choice Eggs: Double Yolk Eggs: 1.3%
  Second Choice Eggs: Floor Eggs: 1.4%
  Second Choice Eggs: Remainder: 0.5%
  Second Choice Eggs: Shell Less Eggs: 0.1%
[1]; breeders 26 through 30 weeks of age, half of vitamin E replaced by PROVIOX 50
  Laying Percentage: 83.6%
[1]; in vivo
  BW 30 wk Females: 3.68 kg
  BW 30 wk Males: 4.19 kg
[1]; start of experiment
  BW 26 wk Females: 3.50 kg
  BW 26 wk Males: 3.91 kg
[2]; in vivo
  proportionality index for transfer of vitamin E from the diet to the egg: around 50%
[2]; vitamin E equivalence 80 ppm
  ORAC of egg yolk: 33.8 µmol TE/g
  Vitamin E of egg yolk: 139.7 µg […]tocoferol/g
[2]; vitamin E equivalence 160 ppm
  ORAC of egg yolk: 33.5 µmol TE/g
  Vitamin E of egg yolk: 231.6 µg […]tocoferol/g
Sows and piglets; Breeding, Group 2: vitamin E 50/75 mg/kg diet
  Activity of glutathione peroxidase (GPx) in blood of sows: 37.73 U/ml
Sows and piglets; Breeding, Group 3: vitamin E 100/150 mg/kg diet
  Activity of glutathione peroxidase (GPx) in blood of sows: 38.85 U/ml
Sows and piglets; Farrowing, Group 2: vitamin E 50/75 mg/kg diet
  Activity of glutathione peroxidase (GPx) in blood of sows: 32.77^C U/ml
Sows and piglets; Farrowing, Group 3: vitamin E 100/150 mg/kg diet
  Activity of glutathione peroxidase (GPx) in blood of sows: 37.64^B U/ml
Sows and piglets; Weaning, Group 2: vitamin E 50/75 mg/kg diet
  Activity of glutathione peroxidase (GPx) in blood of sows: 34.78^C U/ml
Sows and piglets; Weaning, Group 3: vitamin E 100/150 mg/kg diet
  Activity of glutathione peroxidase (GPx) in blood of sows: 36.48^B U/ml
Sows and piglets; Group 2: vitamin E 50/75 mg/kg sow diet
  Activity of glutathione peroxidase (GPx) in blood of piglets: 29.12^B U/ml
Sows and piglets; Group 3: vitamin E 100/150 mg/kg sow diet
  Activity of glutathione peroxidase (GPx) in blood of piglets: 29.91^B U/ml
